# Target: human GPR40 (Homo sapiens (Human), UniProt O14842)
# Experiment: GPR40 Calcium Flux Assay
# Type: cell-based
# Details: transfected HEK293 cells stably expressing human GPR40; Ca2+ mobilization; mean data; read-out: hGPR40 Ca^2+ Assay EC50
# Experimental: Compounds were tested in a calcium flux assay using transfected HEK293 cells stably expressing either human GPR40 or rat GPR40. Human GPR40 expressing cells were cultured in DMEM-High Glucose media supplemented with 10% fetal bovine serum, 1×L-Glutamine, 1×Penicillin/Streptomycin and 500 μg/mL G418. Rat GPR40 expressing cells were cultured in DMEM-High Glucose media supplemented with 10% fetal bovine serum and 1 μg/mL puromycin. Cells were plated into poly-D-lysine coated 384-well plates and cultured overnight in a 37° C. humidified tissue culture incubator under 5% CO2/[…] atmosphere. On the day of the experiment, the culture media was replaced with assay buffer (HBSS, 20 mM HEPES, 0.1% BSA) and the cells incubated at 37° C. for 1 h. Calcium-sensitive fluorescent dye (Fluo 8 No-Wash Calcium Dye, ABD Bioquest) was then added and the cells incubated for another 30 min at 37° C. followed by 15 min at room temperature while protected from the light. The cell plate and a plate of diluted compounds of Formula (I) were loaded into a fluorescent plate reader that added compounds onto the cells while measuring the fluorescence intensity of each well. The plate reader recorded fluorescence intensity at 1 second intervals for 8 min and provided the data for analysis in an Excel format. EC50 values were calculated using Prism (GraphPad) software.
# Sequence of human GPR40 (O14842 whole entry): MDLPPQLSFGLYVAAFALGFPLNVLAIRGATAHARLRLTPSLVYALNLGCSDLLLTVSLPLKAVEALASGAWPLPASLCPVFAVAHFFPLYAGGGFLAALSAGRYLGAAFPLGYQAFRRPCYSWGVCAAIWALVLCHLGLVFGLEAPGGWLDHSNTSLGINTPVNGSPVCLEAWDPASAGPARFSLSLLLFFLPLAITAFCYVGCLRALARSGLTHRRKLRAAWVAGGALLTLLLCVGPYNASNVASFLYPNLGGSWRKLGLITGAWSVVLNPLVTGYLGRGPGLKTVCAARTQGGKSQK
row,SMILES,EC50 [µM]
1,"Cc1cc(OC2CCS(=O)(=O)CC2)ccc1-c1csc2ccc(COc3ccc(C4(CC(=O)O)CC(=O)C4)cc3)cc12 [Cpd 33, 2-(1-(4-((3-(4-((1,1-Dioxidotetrahydro-2H-thiopyran-4-yl)oxy)-2-methylphenyl)benzo[b]thiophen-5-yl)methoxy)phenyl)-3-oxocyclobutyl)acetic acid]",0.015
2,"Cc1cc(OC2CCOCC2)ccc1-c1csc2ccc(COc3ccc(C4(CC(=O)O)CC(=O)C4)cc3)cc12 [Cpd 34, 2-(1-(4-((3-(2-Methyl-4-((tetrahydro-2H-pyran-4-yl)oxy)phenyl)benzo[b]thiophen-5-yl)methoxy)phenyl)-3-oxocyclobutyl)acetic acid]",0.025
3,CCOCCOc1ccc(-c2csc3ccc(COc4ccc([C@]5(CC(=O)O)C[C@@H](O)C5)cc4)cc23)c(C)c1 [Cpd 35],0.026
4,"Cc1cc(OC2CCS(=O)(=O)CC2)ccc1-c1csc2ccc(COc3ccc([C@]4(CC(=O)O)C[C@@H](O)C4)cc3)cc12 [Cpd 36, 2-((1r,3r)-1-(4-((3-(4-((1,1-Dioxidotetrahydro-2H-thiopyran-4-yl)oxy)-2-methylphenyl)benzo[b]thiophen-5-yl)methoxy)phenyl)-3-hydroxycyclobutyl)acetic acid]",0.043
5,"Cc1cc(OC2CCOCC2)ccc1-c1csc2ccc(COc3ccc([C@]4(CC(=O)O)C[C@@H](O)C4)cc3)cc12 [Cpd 37, 2-((1r,3r)-3-Hydroxy-1-(4-((3-(2-methyl-4-((tetrahydro-2H-pyran-4-yl)oxy)phenyl)benzo[b]thiophen-5-yl)methoxy)phenyl)cyclobutyl)acetic acid]",0.017
6,"Cc1ncccc1-c1csc2ccc(COc3ccc(C4(CC(=O)O)CC(=O)C4)cc3)cc12 [Cpd 38, 2-(1-(4-((3-(2-Methylpyridin-3-yl)benzo[b]thiophen-5-yl)methoxy)phenyl)-3-oxocyclobutyl)acetic acid]",0.019
7,Cc1ncccc1-c1csc2ccc(COc3ccc([C@]4(CC(=O)O)C[C@@H](O)C4)cc3)cc12 [Cpd 39],0.046
8,"Cc1cc(N2CC3(CCS3(=O)=O)C2)ccc1-c1csc2ccc(COc3ccc(C4(CC(=O)O)CC(=O)C4)cc3)cc12 [Cpd 40, 2-(1-(4-((3-(4-(1,1-Dioxido-1-thia-6-azaspiro[3.3]heptan-6-yl)-2-methylphenyl)benzo[b]thiophen-5-yl)methoxy)phenyl)-3-oxocyclobutyl)acetic acid]",0.015
9,"CC#C[C@@H](CC(=O)O)c1ccc(OCc2ccc3scc(-c4cc(S(C)(=O)=O)ccc4C)c3c2)cc1 [Cpd 41, (3S)-3-(4-((3-(2-Methyl-5-(methylsulfonyl)phenyl)benzo[b]thiophen-5-yl)methoxy)phenyl)hex-4-ynoic acid]",0.021
10,"CC#C[C@@H](CC(=O)O)c1ccc(OCc2ccc3scc(-c4ccc(S(C)(=O)=O)cc4C)c3c2)cc1 [Cpd 42, (3S)-3-(4-((3-(2-Methyl-4-(methylsulfonyl)phenyl)benzo[b]thiophen-5-yl)methoxy)phenyl)hex-4-ynoic acid]",0.012
11,"CC#C[C@@H](CC(=O)O)c1ccc(OCc2ccc3scc(-c4cc(NS(C)(=O)=O)ccc4C)c3c2)cc1 [Cpd 43, (3S)-3-(4-((3-(2-Methyl-5-(methylsulfonamido)phenyl)benzo[b]thiophen-5-yl)methoxy)phenyl)hex-4-ynoic acid]",0.031
12,"CC#C[C@@H](CC(=O)O)c1ccc(OCc2ccc3scc(-c4c(C)cccc4NS(C)(=O)=O)c3c2)cc1 [Cpd 44, (3S)-3-(4-((3-(2-Methyl-6-(methylsulfonamido)phenyl)benzo[b]thiophen-5-yl)methoxy)phenyl)hex-4-ynoic acid]",0.022
13,"CC#CC(CC(=O)O)c1ccc(OCc2ccc3scc(-c4ccccc4C)c3c2)nc1 (stereo not shown) [Cpd 45, 3-(6-((3-(2-Methylphenyl)benzo[b]thiophen-5-yl)methoxy)pyridin-3-yl)hex-4-ynoic acid]",0.013
14,"CC#CC(CC(=O)O)c1ccc(OCc2ccc3scc(-c4ccc(OC5CCOCC5)cc4C)c3c2)nc1 (stereo not shown) [Cpd 46, 3-(6-((3-(2-Methyl-4-((tetrahydro-2H-pyran-4-yl)oxy)phenyl)benzo[b]thiophen-5-yl)methoxy)pyridin-3-yl)hex-4-ynoic acid]",0.018
15,"CC#CC(CC(=O)O)c1ccc(OCc2ccc3scc(-c4ccc(OCCOC)cc4C)c3c2)nc1 (stereo not shown) [Cpd 47, 3-(6-((3-(4-(2-Methoxyethoxy)-2-methylphenyl)benzo[b]thiophen-5-yl)methoxy)pyridin-3-yl)hex-4-ynoic acid]",0.02
16,"CC#C[C@@H](CC(=O)O)c1ccc(OCc2ccc3scc(-c4ncc(OCCOC)cc4C)c3c2)cc1 [Cpd 48, (3S)-3-(4-((3-(5-(2-Methoxyethoxy)-3-methylpyridin-2-yl)benzo[b]thiophen-5-yl)methoxy)phenyl)hex-4-ynoic acid]",0.01

row,SMILES,EC50 [µM]
1,"CC#C[C@@H](CC(=O)O)c1ccc(OCc2ccc3scc(-c4cc(OCCOC)cnc4C)c3c2)cc1 [Cpd 49, (3S)-3-(4-((3-(5-(2-Methoxyethoxy)-2-methylpyridin-3-yl)benzo[b]thiophen-5-yl)methoxy)phenyl)hex-4-ynoic acid]",0.009
2,"CC#C[C@@H](CC(=O)O)c1ccc(OCc2ccc3scc(-c4ccc(OCCOC)nc4C)c3c2)cc1 [Cpd 50, (3S)-3-(4-((3-(6-(2-Methoxyethoxy)-2-methylpyridin-3-yl)benzo[b]thiophen-5-yl)methoxy)phenyl)hex-4-ynoic acid]",0.012
3,"CC#C[C@@H](CC(=O)O)c1ccc(OCc2ccc3scc(-c4cnc(OCCOC)cc4C)c3c2)cc1 [Cpd 51, (3S)-3-(4-((3-(6-(2-Methoxyethoxy)-4-methylpyridin-3-yl)benzo[b]thiophen-5-yl)methoxy)phenyl)hex-4-ynoic acid]",0.006
4,"CC#C[C@@H](CC(=O)O)c1ccc(OCc2ccc3scc(-c4cc(Cl)ncc4C)c3c2)cc1 [Cpd 52, (3S)-3-(4-((3-(2-Chloro-5-methylpyridin-4-yl)benzo[b]thiophen-5-yl)methoxy)phenyl)hex-4-ynoic acid]",0.019
5,"Cc1ccccc1-c1csc2ccc(OCc3ccc(CCC(=O)O)cc3)cc12 [Cpd 53, 3-(4-(((3-(2-Methylphenyl)benzo[b]thiophen-5-yl)oxy)methyl)phenyl)propanoic acid]",0.89
6,"CC#C[C@@H](CC(=O)O)c1ccc(COc2ccc3scc(-c4ccc(OCCC(C)(C)O)cc4C)c3c2)cc1 [Cpd 54, (3S)-3-[4-[([3-[4-(3-Hydroxy-3-methylbutoxy)-2-methylphenyl]-1-benzothiophen-5-yl]oxy)methyl]phenyl]hex-4-ynoic acid]",0.044
7,"CC#C[C@@H](CC(=O)O)c1ccc(COc2ccc3scc(-c4ccc(OCC(O)CO)cc4C)c3c2)cc1 (stereo partly drawn) [Cpd 55, (3S)-3-[4-[([3-[4-(2,3-Dihydroxypropoxy)-2-methylphenyl]-1-benzothiophen-5-yl]oxy)methyl]phenyl]hex-4-ynoic acid]",0.033
8,"CC#C[C@@H](CC(=O)O)c1ccc(COc2ccc3scc(-c4ccc(OCC5(C)COC5)cc4C)c3c2)cc1 [Cpd 56, (3S)-3-(4-[[(3-[2-Methyl-4-[(3-methyloxetan-3-yl)methoxy]phenyl]-1-benzothiophen-5-yl)oxy]methyl]phenyl)hex-4-ynoic acid]",0.034
9,"CC#C[C@@H](CC(=O)O)c1ccc(COc2ccc3scc(-c4ccc(OC5CCOCC5)cc4C)c3c2)cc1 [Cpd 57, (3S)-3-[4-[([3-[2-Methyl-4-(oxan-4-yloxy)phenyl]-1-benzothiophen-5-yl]oxy)methyl]phenyl]hex-4-ynoic acid]",0.017
10,"CC#C[C@@H](CC(=O)O)c1ccc(COc2ccc3scc(-c4ccc(OCCOC)cc4C)c3c2)cc1 [Cpd 58, (3S)-3-[4-[([3-[4-(2-Methoxyethoxy)-2-methylphenyl]-1-benzothiophen-5-yl]oxy)methyl]phenyl]hex-4-ynoic acid]",0.014
11,"CC#C[C@@H](CC(=O)O)c1ccc(COc2ccc3scc(-c4ccc(OCC5CCS(=O)(=O)CC5)cc4C)c3c2)cc1 [Cpd 59, (3S)-3-{4-[((3-{4-[(1,1-Dioxo-tetrahydro-2H-thiopyran-4-yl)methoxy]-2-methylphenyl}-1-benzothiophen-5-yl)oxy)methyl]phenyl}hex-4-ynoic acid]",0.014
12,"CC#C[C@@H](CC(=O)O)c1ccc(COc2ccc3scc(-c4ccc(OCC5(C)CS(=O)(=O)C5)cc4C)c3c2)cc1 [Cpd 60, (3S)-3-(4-(((3-(2-Methyl-4-((3-methyl-1,1-dioxidothietan-3-yl)methoxy)phenyl)benzo[b]thiophen-5-yl)oxy)methyl)phenyl)hex-4-ynoic acid]",0.07
13,CC#CC(CC(=O)O)c1ccc(OCc2ccc3scc(-c4ccc(OCCC(C)(C)O)cc4C)c3c2)nc1 (stereo not shown) [Cpd 61],0.016
14,"CC#CC(CC(=O)O)c1ccc(OCc2ccc3scc(-c4ccc(OCC(O)CO)cc4C)c3c2)nc1 (stereo not shown) [Cpd 62, 3-(6-((3-(4-(2,3-Dihydroxypropoxy)-2-methylphenyl)benzo[b]thiophen-5-yl)methoxy)pyridin-3-yl)hex-4-ynoic acid]",0.01
15,"CC#CC(CC(=O)O)c1ccc(OCc2ccc3scc(-c4ccc(OCC5CCS(=O)(=O)CC5)cc4C)c3c2)nc1 (stereo not shown) [Cpd 63, 3-(6-((3-(4-((1,1-Dioxidotetrahydro-2H-thiopyran-4-yl)methoxy)-2-methylphenyl)benzo[b]thiophen-5-yl)methoxy)pyridin-3-yl)hex-4-ynoic acid]",0.01
